| SMILES | logP |
| --- | --- |
| Cn1cnc([N+](=O)[O-])c1N | -1 |
| Cn1cc([N+](=O)[O-])nc1Br | 0.33 |
| O=[N+]([O-])c1nc[nH]c1Cl | 0.78 |
| Cn1cc([N+](=O)[O-])nc1Cl | 0.19 |
| Cn1ccnc1[N+](=O)[O-] | -0.17 |
| Cc1[nH]cnc1[N+](=O)[O-] | 0.23 |
| COc1c([N+](=O)[O-])ncn1C | 0.19 |
| Cn1cnc(Br)c1[N+](=O)[O-] | 0.77 |
| Cn1cncc1[N+](=O)[O-] | 0.13 |
| Cn1c([N+](=O)[O-])cnc1Cl | 0.62 |
| Cc1nc(Br)n(C)c1[N+](=O)[O-] | 0.82 |
| Cn1cnc([N+](=O)[O-])c1 | -0.44 |
| Cn1cnc([N+](=O)[O-])c1Br | 0.36 |
| O=[N+]([O-])c1nc[nH]c1Br | 0.85 |
| Cn1cnc(Cl)c1[N+](=O)[O-] | 0.69 |
| COc1nc(C)[nH]c1[N+](=O)[O-] | 0.21 |
| COc1nc[nH]c1[N+](=O)[O-] | 0.13 |
| Cc1[nH]c(Br)nc1[N+](=O)[O-] | 0.86 |
| Cc1nc([N+](=O)[O-])c(Br)[nH]1 | 1.14 |
